Earlier results in US10137085B2, “Nanoemulsion for transdermal delivery and method of making the same” (Nano and Advanced Materials Institute Limited, priority 2014, dated 2018).
Structures can show the parent of a compound that is named as a salt. Where two headings read alike, the source gives them in different places.

Key:
[1] = o/w microemulsion with oleyl alcohol and NMP, compared to aqueous solution

| enhancement of drug permeability [1] | increase of permeation efficiency through skin (solid-in-oil nanodispersion vs control aqueous solution) | increase of permeation efficiency through skin (solid-in-oil nanodispersion with urea as enhancer vs control aqueous solution, after 24 h) | SMILES |
| --- | --- | --- | --- |
| 520 fold |  |  | COc1ccc([C@@H]2Sc3ccccc3N(CCN(C)C)C(=O)[C@@H]2OC(C)=O)cc1 [diltiazem HCl] |
| 58 fold |  |  | C[C@]12CC[C@@H]3c4ccc(O)cc4CC[C@H]3[C@@H]1CC[C@@H]2O [estradiol] |
|  | two- to three | approximately 8.8 fold | CN(Cc1cnc2nc(N)nc(N)c2n1)c1ccc(C(=O)N[C@@H](CCC(=O)O)C(=O)O)cc1 [methotrexate] |
